Laboratory results published in patent US8575170B2, “Flurbiprofen analogs and methods of use in treating cancer” (The Regents of the Unversity of Colorado, a body corporate, priority 2010, dated 2013).
Read-outs that look alike come from different tables or passages of the source.

Key:
[1] = tested on: Panc-327; experiment: MTT cell viability, Panc-327; type: cell-based; settings: Pancreatic cancer cell, 96 h; Pancreatic cancer cells Panc-327; 4 days incubation
From the text: (§1) The ability of the flurbiprofen analog compounds of the invention to inhibit cancer cell growth and survival (viability) in a variety of cancer lines was examined in a standard MTT assay for cell viability, as detailed in Example 2.
(§2) Similar results were obtained for the effect of the B1031 compound on the 14 pancreatic tumor cells lines shown in Table 3 below, where the dose dependent effect of the compound on survival of the pancreatic cancer cell lines is shown in FIG. 5.
(§3) The studies reported in Tables 1-3 above were carried out by incubating the cells in the test compound for four days, under standard cell-culture conditions, and measuring cell survival on day 5 (see Example 2).
(§4) Cell growth and survival following treatment with N—[(S)-2-Fluoro-α-methyl-4-biphenylacetyl]-[L-(4-phenylphenyl)alanine]-N-(2,2,6,6-tetramethyl-4-piperidinyl)amide (GCBH-110=B1031; (S)-Fmba-L-Bip-Atmp) were measured by a rapid colorimetric assay based on the tetrazolium salt MTT (3-(4,5-dimethylthiazol-2-yl)-2,5-diphenyl tetrazolium bromide) (Mosmann, J. Immunol. Methods 65: 55-63, 1983, with minor modifications).
(§5) Briefly, approximately 1,000-5,000 cancer cells from 15 different cancer cells lines were plated in 100 μL of growth medium in 96-well flat-bottomed microtiter plates. Cells were incubated overnight to allow recovery. […] Absorbance was immediately determined using a scanning multiwell plate reader.

[2] = tested on: H513; experiment: MTT cell viability, H513; type: cell-based; settings: 96 h; Mesothelioma lung cell line H513; 4 days incubation
Procedure: as §1, §3, §4
as §5, with “recovery. Compounds to be tested were added to the cells in triplicate in a range of concentrations and the cells were incubated at 37° C., 5% CO2, with 100% humidity. Control cells were treated in the same way without antagonists.” for “recovery.”

[3] = tested on: HADF-2; experiment: MTT cell viability, HADF-2; type: cell-based; settings: Pancreatic cancer cell, 96 h; Pancreatic cancer cells HADF-2; 4 days incubation
From the text: as §1, §2, §3, §4, §5

[4] = tested on: H2122 cells; experiment: Cell cycle phase distribution in H2122 cells; type: cell-based; settings: six concentrations, 24, 48 and 72 hours, FIG. 10
Procedure: FIG. 10 is a plot showing the percentages of H122 cells G1, S, and G2 cycle at […], and 72 hours, as a function of B1031 concentration in the cell medium.
FIG. 10 provides an explanation of the time-dependent IC50 values observed in FIG. 7, and insight into the mechanism by which the compounds of the invention exert their anti-cancer effect. In the study shown in FIG. 10, H2122 cells were cultured in the presence of one of the six concentrations of the B1031 compound, as indicated in the figure. At time periods 24, 48, and 72 hours after incubation with the compound, cells from each of the six cultures (having increasing concentrations of the compound), were examined for percent cells in G1, S, or G2 cell phase.

[5] = tested on: H3225; experiment: MTT cell viability, H3225; type: cell-based; settings: 96 h; Adenocarcinoma lung cell line H3225; 4 days incubation
Procedure: as §1, §3, §4
as §5, with “recovery. Compounds to be tested were added to the cells in triplicate in a range of concentrations and the cells were incubated at 37° C., 5% CO2, with 100% humidity. Control cells were treated in the same way without antagonists.” for “recovery.”

[6] = tested on: Panc-813; experiment: MTT cell viability, Panc-813; type: cell-based; settings: Pancreatic cancer cell, 96 h; Pancreatic cancer cells Panc-813; 4 days incubation
From the text: as §1, §2, §3, §4, §5

[7] = tested on: pancreatic cancer cell lines; experiment: MTT cell viability, panel of pancreatic cancer cell lines; type: cell-based
From the text: as §1, §2, §4
as §5, with “recovery. Compounds to be tested were added to the cells in triplicate in a range of concentrations and the cells were incubated at 37° C., 5% CO2, with 100% humidity.” for “recovery.”

[8] = tested on: H1334; experiment: MTT cell viability, H1334; type: cell-based; settings: 96 h; Large Cell lung cell line H1334; 4 days incubation
Procedure: as §1, §3, §4
as §5, with “recovery. Compounds to be tested were added to the cells in triplicate in a range of concentrations and the cells were incubated at 37° C., 5% CO2, with 100% humidity. Control cells were treated in the same way without antagonists.” for “recovery.”

[9] = tested on: 1586; experiment: MTT cell viability, 1586; type: cell-based; settings: Head and neck cancer cell line 1586
Procedure: as §1
A similar study was conducted on 14 […] cancer cell lines, identified in Table 2.
as §4
Briefly, approximately 1,000-5,000 cancer cells from 15 different cancer cells lines were plated in 100 μL of growth medium in 96-well flat-bottomed microtiter plates. Cells were incubated overnight to allow recovery. Compounds to be tested were added to the cells in triplicate in a range of concentrations and the cells were incubated at 37° C., 5% CO2, with 100% humidity. Control cells were treated in the same way without antagonists. […] Plates were incubated for 4 days, allowing sufficient time for cell replication and compound-induced cell death to occur. […] Absorbance was immediately determined using a scanning multiwell plate reader. […]

[10] = tested on: Panc-1; experiment: MTT cell viability, Panc-1; type: cell-based; settings: Homo sapiens, 96 h; Pancreatic cancer cells Panc-1; 4 days incubation
From the text: as §1, §2, §3, §4, §5

[11] = Solubility of flurbiprofen analog compounds; type: physicochemical; settings: medium in which the compound is soluble, Table 5
[12] = tested on: Panc-504; experiment: MTT cell viability, Panc-504; type: cell-based; settings: Pancreatic cancer cell, 96 h; Pancreatic cancer cells Panc-504; 4 days incubation
From the text: as §1, §2, §3, §4, §5

[13] = tested on: BTIC EF12 brain tumor initiating stem cells; experiment: Inhibition of BTIC EF12 brain tumor initiating stem cells; type: cell-based; settings: at 10 μM, FIG. 6B
Procedure: FIGS. 6A and 6B show the loss in cell viability in HT-29 colon cancer cells, in response to increasing concentrations of GH 502 (GCBH 118) (FIG. 6A), and the effect of various treatments, including increasing concentration of GH501 (GCBH 110) on U251 malignant glioma cells and BTIC EF12 brain tumor initiating stem cells (FIG. 6B).
The study shown in FIG. 6A examined the effect of GCBH-118 (GH502) on an HT-29 colon cancer cell, showing an IC50 value of about 1 μM. […] The graph indicates an IC50 value for the B1031 compound against the U251 brain cancer cell line of between 2 and 10 μM.

[14] = tested on: H441; experiment: MTT cell viability, H441; type: cell-based; settings: Homo sapiens, NCI-H441, 96 h; Adenocarcinoma lung cell line H441; 4 days incubation
Procedure: as §1, §3, §4
(§6) Briefly, approximately 1,000-5,000 cancer cells from 15 different cancer cells lines were plated in 100 μL of growth medium in 96-well flat-bottomed microtiter plates. Cells were incubated overnight to allow recovery. Compounds to be tested were added to the cells in triplicate in a range of concentrations and the cells were incubated at 37° C., 5% CO2, with 100% humidity. Control cells were treated in the same way without antagonists. […] Absorbance was immediately determined using a scanning multiwell plate reader.

[15] = tested on: H865; experiment: MTT cell viability, H865; type: cell-based; settings: 96 h; SCLC lung cell line H865; 4 days incubation
Procedure: as §1, §3, §4, §6

IC50 [1]: 670 nM
IC50 [2]: 1800 nM
IC50 [5]: 1100 nM
IC50 [6]: 3.1 µM
IC50 ([7]; majority of the pancreatic cell lines, read-out: IC50, majority of the cell lines): ≤ 700 nM
IC50 ([7]; span over 14 pancreatic tumor cell lines, Table 3, FIG. 5, read-out: IC50 values): 160 to 3100 nM
IC50 [8]: 400 nM
IC50 [10]: 810 nM
Solubility [11]: 50% DMSO
IC50 [12]: 160 nM
IC50 [14]: 1600 nM
IC50 [15]: 360 nM
SMILES: C[C@H](C(=O)N[C@@H](Cc1ccc(-c2ccccc2)cc1)C(=O)NC1CC(C)(C)NC(C)(C)C1)c1ccc(-c2ccccc2)c(F)c1 [GCBH-110, N—[(S)-2-Fluoro-α-methyl-4-biphenylacetyl]-[L-(4-phenylphenyl)alanine]-N-(2,2,6,6-tetramethyl-4-piperidinyl)amide]
IC50 [3]: 700 nM
percent cells in G1, S, or G2 cell phase [4]: marked shift of the cell populations away from the S and G2 phases to the G1 phase
IC50 [9]: 1500 nM
compound inhibition of the BTIC EF12 cells [13]: inhibition
